Reference: patent publication US9062002B2, “Substituted pyridine derivatives as FabI inhibitors” (Aurigene Discovery Technologies Limited, priority 2011, dated 2015)
Values after ≈ are worked out from the molar mass of the structure shown. Read-outs that look alike come from different tables or passages of the source.

Columns and labels:
MRSA = assay: MIC by broth microdilution method; assay type: cell-based; conditions: for MIC: Staphylococcus aureus, read-out: MIC Vs MRSA (μg/ml) MRSA
MSSA = assay: MIC by broth microdilution method; assay type: cell-based; conditions: for MIC: Staphylococcus aureus, MRSA / MSSA, read-out: MIC Vs MRSA (μg/ml) MSSA
Fab I = conditions: 1 μM compound
MRSE = assay: MIC by broth microdilution method; assay type: cell-based; conditions: for MIC: Staphylococcus epidermidis, MRSA / MRSE, read-out: MIC Vs MRSA (μg/ml) MRSE
[1] = Metabolic stability study in mouse liver microsomes; assay type: in vitro ADME; conditions: 1 μM, 37° C.
Protocol: The above selected compounds have protected mice from infection at ED50 doses. Metabolic Stability Study: In vitro metabolic stability of the compounds was done in mouse liver microsomes prepared in house as per standard protocol. Compounds were tested at 1 μM concentration. Compounds were incubated for 15 and 60 minutes at 37° C. with 100 rpm in shaker bath. After the incubation samples were analysed by LC/MS (API-4000). Respective control (Propranalol) was included in the study.

O=C1CCc2cc(/C=C/C(=O)N3CC=C(Cc4cccc(Cl)c4)CC3)cnc2N1 [Compound 67]
MIC Vs MRSA (μg/ml) MRSA (MRSA; MRSA, broth microdilution): 1 µg/mL (≈ 2.45 µM) | MIC Vs MRSA (μg/ml) MSSA (MSSA; MSSA, broth microdilution): 2 µg/mL (≈ 4.9 µM) | FAB-I inhibition %@1 μM (Fab I): 63% | MIC Vs MRSA (μg/ml) MRSE (MRSE; MRSE, broth microdilution): 2 µg/mL (≈ 4.9 µM)

O=C1CCc2cc(/C=C/C(=O)N3CC=C(Cc4sccc4Cl)CC3)cnc2N1 [Compound 87]
MIC Vs MRSA (μg/ml) MRSA (MRSA): 0.5 µg/mL (≈ 1.21 µM) | MIC Vs MRSA (μg/ml) MSSA (MSSA): 0.5 µg/mL (≈ 1.21 µM) | FAB-I inhibition %@1 μM (Fab I): 69.05% | MIC Vs MRSA (μg/ml) MRSE (MRSE): 0.5 µg/mL (≈ 1.21 µM)

CC(=O)Nc1ccc(/C=C/C(=O)N2CC=C(Cc3cccs3)CC2)cn1 [Compound 88, (E)-N-(5-(3-oxo-3-(4-(thiophen-2-ylmethyl)-5,6-dihydropyridin-1(2H)-yl)prop-1-en-1-yl)pyridin-2-yl)acetamide]
MIC (MRSA; MRSA, broth microdilution): > 128 µg/mL | Percentage of compound remained after 15 min [1]: 11.1% | Percentage of compound remained after 60 min [1]: 5.5% | MIC (MSSA; MSSA, broth microdilution): > 128 µg/mL | FAB-I inhibition %@1 μM (Fab I): 87% | MIC (MRSE; MRSE, broth microdilution): > 128 µg/mL

O=C1CCc2cc(/C=C/C(=O)N3CC=C(Cn4cccn4)CC3)cnc2N1 [Compound 100]
MIC Vs MRSA (μg/ml) MRSA (MRSA; MRSA, broth microdilution): 128 µg/mL (≈ 352 µM) | MIC Vs MRSA (μg/ml) MSSA (MSSA; MSSA, broth microdilution): 128 µg/mL (≈ 352 µM) | FAB-I inhibition %@1 μM (Fab I): 77% | MIC Vs MRSA (μg/ml) MRSE (MRSE; MRSE, broth microdilution): 128 µg/mL (≈ 352 µM)

O=C1CCc2cc(/C=C/C(=O)N3CC=C(COc4ccc(Cl)cc4)CC3)cnc2N1 [Compound 113]
MIC Vs MRSA (μg/ml) MRSA (MRSA; MRSA, broth microdilution): >128 µg/mL | MIC Vs MRSA (μg/ml) MSSA (MSSA; MSSA, broth microdilution): >128 µg/mL | FAB-I inhibition %@1 μM (Fab I): 36% | MIC Vs MRSA (μg/ml) MRSE (MRSE; MRSE, broth microdilution): >128 µg/mL

O=C1CCc2cc(/C=C/C(=O)N3CC=C(Cc4nccs4)CC3)cnc2N1 [Compound 97]
MIC Vs MRSA (μg/ml) MRSA (MRSA): 0.5 µg/mL (≈ 1.31 µM) | MIC Vs MRSA (μg/ml) MSSA (MSSA): 0.5 µg/mL (≈ 1.31 µM) | FAB-I inhibition %@1 μM (Fab I): 66.85% | MIC Vs MRSA (μg/ml) MRSE (MRSE): 1 µg/mL (≈ 2.63 µM)

CC(C)CC(=O)N1CCC2(CC1)Cc1cc(/C=C/C(=O)N3CC=C(Cc4cccs4)CC3)cnc1NC2=O [Compound 140, (E)-1′-(3-methylbutanoyl)-6-(3-oxo-3-(4-(thiophen-2-ylmethyl)-5,6-dihydropyridin-1(2H)-yl)prop-1-en-1-yl)-1H-spiro[[1,8]naphthyridine-3,4′-piperidin]-2(4H)-one]
Percentage of compound remained after 15 min [1]: 1.9% | Percentage of compound remained after 60 min [1]: 1.7%

O=C1CCc2cc(/C=C/C(=O)N3CC=C(Cc4cncs4)CC3)cnc2N1 [Compound 145]
Percentage of compound remained after 15 min [1]: 83.3% | Percentage of compound remained after 60 min [1]: 60.2%

O=C1CCc2cc(/C=C/C(=O)N3CC=C(Cc4ccccc4)CC3)cnc2N1 [Compound 62]
MIC Vs MRSA (μg/ml) MRSA (MRSA): 0.5 µg/mL (≈ 1.34 µM) | Percentage of compound remained after 15 min [1]: 78.5% | Percentage of compound remained after 60 min [1]: 54.2% | MIC Vs MRSA (μg/ml) MSSA (MSSA): 0.25 µg/mL (≈ 0.669 µM) | FAB-I inhibition %@1 μM (Fab I): 76% | MIC Vs MRSA (μg/ml) MRSE (MRSE): 0.5 µg/mL (≈ 1.34 µM)

O=C1CCc2cc(/C=C/C(=O)N3CC=C(c4ccc(F)cc4)CC3)cnc2N1 [Compound 8]
MIC Vs MRSA (μg/ml) MRSA (MRSA; MRSA, broth microdilution): 2 µg/mL (≈ 5.3 µM) | MIC Vs MRSA (μg/ml) MSSA (MSSA; MSSA, broth microdilution): 2 µg/mL (≈ 5.3 µM) | FAB-I inhibition %@1 μM (Fab I): 108% | MIC Vs MRSA (μg/ml) MRSE (MRSE; MRSE, broth microdilution): 8 µg/mL (≈ 21.2 µM)

O=C1CCc2cc(/C=C/C(=O)N3CC=C(COc4ccccc4)CC3)cnc2N1 [Compound 107, (E)-6-(3-oxo-3-(4-(phenoxymethyl)-5,6-dihydropyridin-1(2H)-yl)prop-1-en-1-yl)-3,4-dihydro-1,8-naphthyridin-2(1H)-one]
MIC (MRSA; MRSA, broth microdilution): 4 µg/mL (≈ 10.3 µM) | MIC (MSSA; MSSA, broth microdilution): 4 µg/mL (≈ 10.3 µM) | FAB-I inhibition %@1 μM (Fab I): 95% | MIC (MRSE; MRSE, broth microdilution): 4 µg/mL (≈ 10.3 µM)

Cc1ccc(CC2=CCN(C(=O)/C=C/c3cnc4c(c3)CCC(=O)N4)CC2)cc1 [Compound 70]
MIC Vs MRSA (μg/ml) MRSA (MRSA): 1 µg/mL (≈ 2.58 µM) | MIC Vs MRSA (μg/ml) MSSA (MSSA): 1 µg/mL (≈ 2.58 µM) | FAB-I inhibition %@1 μM (Fab I): 63.47% | MIC Vs MRSA (μg/ml) MRSE (MRSE): 2 µg/mL (≈ 5.16 µM)

O=C1CCc2cc(/C=C/C(=O)N3CC=C(c4ccccc4)CC3)cnc2N1 [Compound 2, (E)-6-(3-oxo-3-(4-phenyl-5,6-dihydropyridin-1(2H)-yl)prop-1-en-1-yl)-3,4-dihydro-1,8-naphthyridin-2(1H)-one]
MIC (MRSA; MRSA, broth microdilution): 0.5 µg/mL (≈ 1.39 µM) | Percentage of compound remained after 15 min [1]: 99.7% | Percentage of compound remained after 60 min [1]: 97.9% | MIC (MSSA; MSSA, broth microdilution): 0.5 µg/mL (≈ 1.39 µM) | FAB-I inhibition %@1 μM (Fab I): 86% | MIC (MRSE; MRSE, broth microdilution): 4 µg/mL (≈ 11.1 µM)

O=C1CCc2cc(/C=C/C(=O)N3CC=C(Cc4ccccc4F)CC3)cnc2N1 [Compound 66]
MIC Vs MRSA (μg/ml) MRSA (MRSA): 0.25 µg/mL (≈ 0.639 µM) | MIC Vs MRSA (μg/ml) MSSA (MSSA): 0.25 µg/mL (≈ 0.639 µM) | FAB-I inhibition %@1 μM (Fab I): 84% | MIC Vs MRSA (μg/ml) MRSE (MRSE): 0.25 µg/mL (≈ 0.639 µM)

O=C1CCNc2cc(/C=C/C(=O)N3CC=C(Cc4nccs4)CC3)cnc2N1 [Compound 143, (E)-8-(3-oxo-3-(4-(thiazol-2-ylmethyl)-5,6-dihydropyridin-1(2H)-yl)prop-1-en-1-yl)-2,3-dihydro-1H-pyrido[2,3-b][1,4]diazepin-4(5H)-one]
Percentage of compound remained after 15 min [1]: 27.5% | Percentage of compound remained after 60 min [1]: 15.8%

O=C(/C=C/c1cnc2c(c1)CC1(CCN(C(=O)CO)CC1)C(=O)N2)N1CC=C(Cc2cccs2)CC1 [Compound 138, (E)-1′-(2-hydroxyacetyl)-6-(3-oxo-3-(4-(thiophen-2-ylmethyl)-5,6-dihydropyridin-1(2H)-yl)prop-1-en-1-yl)-1H-spiroa[[1,8]naphthyridine-3,4′-piperidin]-2(4H)-one]
Percentage of compound remained after 15 min [1]: 44.3% | Percentage of compound remained after 60 min [1]: 10.2%

CC(=O)N1CCC2(CC1)Cc1cc(/C=C/C(=O)N3CC=C(Cc4cccs4)CC3)cnc1NC2=O [Compound 96, (E)-1′-acetyl-6-(3-oxo-3-(4-(thiophen-2-ylmethyl)-5,6-dihydropyridin-1(2H)-yl)prop-1-en-1-yl)-1H-spiro[[1,8]naphthyridine-3,4′-piperidin]-2(4H)-one]
MIC (MRSA; MRSA, broth microdilution): 8 µg/mL (≈ 16.3 µM) | MIC (MSSA; MSSA, broth microdilution): 8 µg/mL (≈ 16.3 µM) | MIC (MRSE; MRSE, broth microdilution): 16 µg/mL (≈ 32.6 µM)

CC(C)(C)OC(=O)N1CCC2(CC1)Cc1cc(/C=C/C(=O)N3CC=C(Cc4cccs4)CC3)cnc1NC2=O [Compound 94, (E)-tert-butyl 2-oxo-6-(3-oxo-3-(4-(thiophen-2-ylmethyl)-5,6-dihydropyridin-1(2H)-yl)prop-1-en-1-yl)-2,4-dihydro-1H-spiro[[1,8]naphthyridine-3,4′-piperidine]-1′-carboxylate]
MIC (MRSA; MRSA, broth microdilution): 0.5 µg/mL (≈ 0.911 µM) | Percentage of compound remained after 15 min [1]: 55.7% | Percentage of compound remained after 60 min [1]: 37.6% | MIC (MSSA; MSSA, broth microdilution): 0.5 µg/mL (≈ 0.911 µM) | MIC (MRSE; MRSE, broth microdilution): 1 µg/mL (≈ 1.82 µM)

O=C1CNCc2cc(/C=C/C(=O)N3CC=C(Cc4cccs4)CC3)cnc2N1 [Compound 92, (E)-7-(3-oxo-3-(4-(thiophen-2-ylmethyl)-5,6-dihydropyridin-1(2H)-yl)prop-1-en-1-yl)-4,5-dihydro-1H-pyrido[2,3-e][1,4]diazepin-2(3H)-one]
MIC (MRSA; MRSA, broth microdilution): 0.25 µg/mL (≈ 0.634 µM) | MIC (MSSA; MSSA, broth microdilution): 0.12 µg/mL (≈ 0.304 µM) | MIC (MRSE; MRSE, broth microdilution): 0.25 µg/mL (≈ 0.634 µM)

NC(=O)N1CCC2(CC1)Cc1cc(/C=C/C(=O)N3CC=C(Cc4cccs4)CC3)cnc1NC2=O [Compound 139, (E)-2-oxo-6-(3-oxo-3-(4-(thiophen-2-ylmethyl)-5,6-dihydropyridin-1(2H)-yl)prop-1-en-1-yl)-2,4-dihydro-1H-spiro[[1,8]naphthyridine-3,4′-piperidine]-1′-carboxamide]
Percentage of compound remained after 15 min [1]: 21.6% | Percentage of compound remained after 60 min [1]: 7.3%

Cc1cnc(CC2=CCN(C(=O)/C=C/c3cnc4c(c3)CCC(=O)N4)CC2)s1 [Compound 57]
Percentage of compound remained after 15 min [1]: 86.8% | Percentage of compound remained after 60 min [1]: 57.1%

O=C(/C=C/c1cnc2c(c1)CN(CCN1CCC3(CC1)COC3)C(=O)N2)N1CC=C(Cc2cccs2)CC1 [Compound 147, (E)-3-(2-(2-oxa-7-azaspiro[3.5]nonan-7-yl)ethyl)-6-(3-oxo-3-(4-(thiophen-2-ylmethyl)-5,6-dihydropyridin-1(2H)-yl)prop-1-en-1-yl)-3,4-dihydropyrido[2,3-d]pyrimidin-2(1H)-one]
Percentage of compound remained after 15 min [1]: 4.0% | Percentage of compound remained after 60 min [1]: 2.2%

O=C1CCc2cc(/C=C/C(=O)N3CC=C(Cc4cccs4)CC3)cnc2N1 [Compound 84]
MIC Vs MRSA (μg/ml) MRSA (MRSA): 0.25 µg/mL (≈ 0.659 µM) | MIC Vs MRSA (μg/ml) MSSA (MSSA): 0.125 µg/mL (≈ 0.329 µM) | FAB-I inhibition %@1 μM (Fab I): 100% | MIC Vs MRSA (μg/ml) MRSE (MRSE): 0.25 µg/mL (≈ 0.659 µM)

CN1CCC2(CC1)Cc1cc(/C=C/C(=O)N3CC=C(Cc4cccs4)CC3)cnc1NC2=O [Compound 146, (E)-1′-methyl-6-(3-oxo-3-(4-(thiophen-2-ylmethyl)-5,6-dihydropyridin-1(2H)-yl)prop-1-en-1-yl)-1H-spiro[[1,8]naphthyridine-3,4′-piperidin]-2(4H)-one]
Percentage of compound remained after 15 min [1]: 57.9% | Percentage of compound remained after 60 min [1]: 15.8%
